Measurements published in paper PMC10222456, “Application of Physiologically Based Pharmacokinetic Modeling to Predict Drug–Drug Interactions between Elexacaftor/Tezacaftor/Ivacaftor and Tacrolimus in Lung Transplant Recipients” (Pharmaceutics, 2023).
Where “and” joins values, the source holds several entries; their conditions need not be identical. Identical values can stand only once. Like-named read-outs stand apart in the source and are kept apart here.

Columns and labels:
CYP3A [1] = test system: CYP3A; design: method as in earlier work; settings: cited from earlier work
CYP3A [2] = assay: PBPK simulation of clinical DDI studies (model verification); design: species or system human
Procedure: For verification simulations, the dose and schedule of drugs were matched to the design of the corresponding clinical DDI study performed in healthy volunteers.
The input parameters of these CYP3A substrates are available in the compound library of Simcyp version 21: SV-Ethinylestradiol and Sim-Midazolam. […] For the ivacaftor–ethinylestradiol situation, ivacaftor 150 mg was administered orally twice daily for 28 days, while ethinylestradiol oral 0.035 mg was administered once daily for 21 days.
The PBPK models for posaconazole and voriconazole as CYP3A inhibitors were built according to the publications by Hong and Li et al., respectively. For the posaconazole–tacrolimus DDI study, posaconazole was administered orally at a dose of 400 mg twice daily for 7 days, and a single oral dose of tacrolimus 0.05 mg/kg was administered on day 7. For the voriconazole–tacrolimus DDI, voriconazole was administered orally at a dose of 400 mg twice daily for the first day, followed by 200 mg twice daily for the next 6 days, and a single oral dose of tacrolimus 0.1 mg/kg was administered on day 7.
To quantify the DDIs, the geometric mean ratios of AUC or Cmax in the presence or absence of CYP3A modulators were determined. The assessment of the DDI prediction success was based on whether predictions fell within a twofold range of the observed data.

CYP3A [3] = settings: cited from earlier work; for AUC ratio: co-administration with posaconazole 400 mg twice daily
[4] = cited from earlier work
[5] = cited from earlier work; remark: listed apart in the source
[6] = cited from earlier work; remark: listed apart in the source
[7] = cited from earlier work; remark: listed apart in the source
CYP3A4 [8] = settings: set to capture observed DDIs with ketoconazole or rifampin; cited from earlier work
[9] = cited from earlier work; remark: listed apart in the source
CYP3A5 = test system: CYP3A5; design: method as in Dai et al. [23]; settings: ref Dai et al. [23], cited from earlier work
[10] = PBPK simulation of plasma or blood pharmacokinetics (Simcyp); settings: single dose oral or intravenous, Cmax and AUC
From the text: The PBPK models were implemented within the Simcyp Simulator (version 21; Certara, Sheffield, UK). To mimic the CF population, the distribution of ages and proportion of females were corrected to reflect the demographics of the CF population in the default healthy population library file (Sim-Healthy volunteers) provided in Simcyp® [18]. […] Further, the proportion of females was adjusted from 0.32 in the healthy population to 0.48 in CF. For the trial design, we used a population size of 100 (10 trials with 10 subjects in each trial).
Ivacaftor was orally administered under fed conditions to mimic the clinical setting, where a fat-containing food is required for optimal absorption. The simulated data were qualified using the plasma PK data observed in an adult CF population [11].
The whole-blood PK profiles of tacrolimus following single-dose administration (0.05 mg/kg oral or 0.01 mg/kg iv infusion for 4 h) were simulated to verify the performance of the tacrolimus model. Tacrolimus was administered under fasted conditions to mimic the clinical study. The simulated data were qualified using the blood PK data observed in a healthy adult population [24].
The prediction accuracies for the area under the curve (AUC) and maximum plasma concentration (Cmax) values were calculated as a ratio of mean observed over mean predicted values. […]

CYP3A4 [11] = biological target: CYP3A4 (Homo sapiens, UniProt P08684); design: method as in Dai et al. [23]; settings: ref Dai et al. [23], cited from earlier work
Caco-2 cell = test system: Caco-2 cell; design: method as in Gertz et al. [22]; settings: ref Gertz et al. [22]; cited from earlier work
[12] = Clinical case series: tacrolimus trough levels before and after starting ETI in CF lung transplant recipients; format: in vivo, human
Procedure: This was an IRB-approved, retrospective, single-center cohort study that reviewed all CF lung transplant recipients prescribed ETI post lung transplantation. Patients were included if they were 18 years of age or older with CF, with at least one F508del mutation/minimal function genotype or a mutation in the CFTR gene that is responsive to ETI based on in vitro data. To evaluate the impact of ETI on tacrolimus exposure, tacrolimus trough levels were recorded before and up to one month after starting ETI. Patients had to be clinically stable, with no significant changes in health status, or initiating new medications known to modulate CYP3A4 and/or P-gp one month before or after starting ETI. Patients lost to follow-up or with missing tacrolimus trough levels were excluded.
Collected data included age, sex, weight, baseline lung function, body mass index, CFTR genotype, additional comorbidities, transplant and ETI start dates, ETI and tacrolimus dosing regimens, concurrent CYP3A4 modulators, and tacrolimus blood levels.
Baseline lung function was defined as the highest forced expiratory volume in one second (FEV1) during the year prior to initiating ETI therapy, obtained from routine pulmonary function tests. Percent predicted FEV1 (ppFEV1) was then extrapolated using the Global Lung Function Initiative 2012 prediction equation [35]. Tacrolimus troughs were measured through routine clinical laboratory blood draws and analyzed by validated immunoturbidometric protocols. To assess the effects of ETI, tacrolimus doses and concentrations within one month before and after ETI start were recorded. The steady state for tacrolimus and ETI were estimated to be attained within four to five half-lives after starting a regimen. Tacrolimus troughs were recorded at least 2–3 days after a dose change and 5–6.5 days post ETI initiation, based on elexacaftor’s longest half-life of the three CFTR modulators. Furthermore, to explore potential variability in the adherence to therapy and the timing of blood draws, tacrolimus trough levels within one month post ETI were averaged. For two patients with a changed tacrolimus dose immediately prior to ETI initiation and without a corresponding trough level, we captured the next most recent dose and trough within a three-month period.
All statistical analyses were performed using GraphPad version 8.0.2, with a two-sided significance value of 0.05.

[13] = design: method as in Emoto et al. [25]; settings: ref Emoto et al. [25], cited from earlier work
[14] = victim drug +/− ivacaftor 150 mg oral twice daily, healthy volunteers
[15] = ivacaftor 150 mg q12h oral, plasma, adult CF population
[16] = tacrolimus 0.05 mg/kg single dose oral, blood, healthy adults
[17] = tacrolimus 0.1 mg/kg single dose iv infusion (4 h), blood, healthy adults
[18] = individual patients 1–13, dose normalized

Sequence of CYP3A4 (Homo sapiens, UniProt P08684) (P08684 whole entry): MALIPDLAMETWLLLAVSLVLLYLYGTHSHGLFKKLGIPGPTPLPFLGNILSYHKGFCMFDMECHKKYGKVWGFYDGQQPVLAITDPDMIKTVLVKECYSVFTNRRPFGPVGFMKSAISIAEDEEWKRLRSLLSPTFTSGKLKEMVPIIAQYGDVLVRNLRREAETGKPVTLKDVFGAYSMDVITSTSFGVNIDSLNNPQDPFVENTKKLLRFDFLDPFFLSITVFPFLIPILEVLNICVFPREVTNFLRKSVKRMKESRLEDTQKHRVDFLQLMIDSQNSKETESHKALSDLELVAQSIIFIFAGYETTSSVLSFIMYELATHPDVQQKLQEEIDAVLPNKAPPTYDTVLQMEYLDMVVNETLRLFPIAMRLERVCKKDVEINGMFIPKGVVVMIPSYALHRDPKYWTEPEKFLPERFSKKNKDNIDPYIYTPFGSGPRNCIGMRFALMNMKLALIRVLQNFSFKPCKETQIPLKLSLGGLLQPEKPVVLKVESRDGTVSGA

Cc1nn(C)cc1S(=O)(=O)NC(=O)c1ccc(-n2ccc(OCC(C)(C)C(F)(F)F)n2)nc1N1C[C@@H](C)CC1(C)C [elexacaftor]
effect on the activity of CYP3A (CYP3A [1]): no significant effect

C#C[C@]1(O)CC[C@H]2[C@@H]3CCc4cc(O)ccc4[C@H]3CC[C@@]21C [ethinylestradiol]
AUC Ratio, Ratio (Simulated/Observed) (CYP3A [2]; victim drug +/− ivacaftor): 1.07 | Cmax Ratio, Ratio (Simulated/Observed) (CYP3A [2]; victim drug +/− ivacaftor): 0.91 | AUC Ratio, Observed GMR (90% CI) (CYP3A [3]; [14]): 1.07 (1.00, 1.14) | Cmax Ratio, Observed GMR (90% CI) (CYP3A [3]; [14]): 1.22 (1.10, 1.36)

CC(C)(C)c1cc(C(C)(C)C)c(NC(=O)c2c[nH]c3ccccc3c2=O)cc1O [ivacaftor]
logP ([4]; ivacaftor model input): 5.68 | fraction of unbound drug in plasma (fu) ([5]; ivacaftor model input): 0.001 | Observed AUC (0–12 h) (mean) [6, 15]: 12,100 ng∙h/mL | Observed Cmax (mean) [6, 15]: 1270 ng/mL | Tmax ([7]; human, in vivo): 2 to 6 h | half-life ([7]; human, in vivo): 15 h | fraction metabolized by CYP3A4 (fmCYP3A4) (CYP3A4 [8]): 98%

Cc1ncc2n1-c1ccc(Cl)cc1C(c1ccccc1F)=NC2 [midazolam]
AUC Ratio, Ratio (Simulated/Observed) (CYP3A [2]; victim drug +/− ivacaftor): 1.09 | Cmax Ratio, Ratio (Simulated/Observed) (CYP3A [2]; victim drug +/− ivacaftor): 1.09 | oral bioavailability [7]: 31–72% | AUC ratio (CYP3A [3]): 4.97 | AUC Ratio, Observed GMR (90% CI) (CYP3A [3]; [14]): 1.54 (1.39, 1.69) | Cmax Ratio, Observed GMR (90% CI) (CYP3A [3]; [14]): 1.38 (1.26, 1.52)

C=CC[C@@H]1/C=C(\C)C[C@H](C)C[C@H](OC)[C@H]2O[C@@](O)(C(=O)C(=O)N3CCCC[C@H]3C(=O)O[C@H](/C(C)=C/[C@@H]3CC[C@@H](O)[C@H](OC)C3)[C@H](C)[C@@H](O)CC1=O)[C@H](C)C[C@@H]2OC [tacrolimus]
AUC Ratio, Ratio (Simulated/Observed) (CYP3A [2]; tacrolimus +/− posaconazole): 0.98 | Cmax Ratio, Ratio (Simulated/Observed) (CYP3A [2]; tacrolimus +/− posaconazole): 1.20 | AUC Ratio, Ratio (Simulated/Observed) (CYP3A [2]; tacrolimus +/− voriconazole): 1.07 | Cmax Ratio, Ratio (Simulated/Observed) (CYP3A [2]; tacrolimus +/− voriconazole): 1.00 | predicted AUC and Cmax ratio relative to the observed values (CYP3A [2]; tacrolimus model as victim, DDIs with posaconazole or voriconazole): 0.98 to 1.20 | dose excreted unchanged in urine [9]: less than 1% | unchanged tacrolimus as share of total radioactivity excreted in feces ([9]; in vivo): less than 1% | CYP3A5 Vmax (CYP3A5; 12-hydroxylation): 1.4 pmol/min/pmol CYP | Km (CYP3A5; 12-hydroxylation): 0.35 µM | CYP3A5 Vmax (CYP3A5; 13-O-desmethylation): 17 pmol/min/pmol CYP | Km (CYP3A5; 13-O-desmethylation): 0.21 µM | Compound type ([4]; ref Gertz et al. [21]): Neutral | Log Po:w ([4]; ref Gertz et al. [21]): 3.3 | B/P (blood-to-plasma ratio) ([5]; ref Gertz et al. [21]): 35 | ratio of the predicted to observed PK parameters [10]: 0.8–1.3 | Observed AUC (0–108 h) (mean) [6, 16]: 307 ng·h/mL | Observed Cmax (mean) [6, 16]: 37.8 ng/mL | Observed AUC (0–264 h) (mean) [6, 17]: 378 ng·h/mL | Observed Cmax (mean) [6, 17]: 21.4 ng/mL | oral bioavailability [7]: < 20% | bioavailability ([7]; significantly affected by the presence of food): 5–93% | AUC ratio (CYP3A [3]): 4.58 | AUC Ratio, Observed GMR (90% CI) (CYP3A [3]; tacrolimus +/− posaconazole): 4.5 (4.0, 5.2) | Cmax Ratio, Observed GMR (90% CI) (CYP3A [3]; tacrolimus +/− posaconazole): 2.0 (2.0, 2.4) | AUC Ratio, Observed GMR (90% CI) (CYP3A [3]; tacrolimus +/− voriconazole): 3.0 (2.7, 3.8) | Cmax Ratio, Observed GMR (90% CI) (CYP3A [3]; tacrolimus +/− voriconazole): 2.0 (1.9, 2.5) | increase of tacrolimus concentration (CYP3A [3]; with clarithromycin, despite a 64% reduction in the tacrolimus dose): fourfold | CYP3A4 Vmax (CYP3A4 [11]; 12-hydroxylation): 0.6 pmol/min/pmol CYP | Km (CYP3A4 [11]; 12-hydroxylation): 0.29 µM | CYP3A4 Vmax (CYP3A4 [11]; 13-O-desmethylation): 8 pmol/min/pmol CYP | Km (CYP3A4 [11]; 13-O-desmethylation): 0.21 µM | Caco-2 permeability (Caco-2 cell): 13.1 10^−6 cm/s | TAC DN Trough Level, Post-ETI, Median ([12]; N = 13 cohort): 96.12 ng/mL per mg/kg/day | TAC DN Trough Level, Pre-ETI, Median ([12]; N = 13 cohort): 73.41 ng/mL per mg/kg/day | TAC Trough Concentration, Post-ETI, Median ([12]; N = 13 cohort): 9.05 ng/mL | TAC Trough Concentration, Pre-ETI, Median ([12]; N = 13 cohort): 7.50 ng/mL | Percent Difference DN Trough, Median (increase after starting ETI) ([12]; N = 13 cohort, p = 0.0479): 32% | TAC Trough Concentration, Post-ETI ([12]; individual patients 1–13, averaged within one month post ETI): 9.50 ng/mL and 3.40 ng/mL and 8.90 ng/mL and 6.10 ng/mL and 5.58 ng/mL and 6.70 ng/mL and 9.05 ng/mL and 15.70 ng/mL and 14.10 ng/mL and 9.75 ng/mL and 9.73 ng/mL and 8.45 ng/mL and 11.30 ng/mL | Percent Difference DN Trough ([12]; individual patients 1–13, post- vs pre-ETI): 62.10% and −57.76% and 30.93% and −6.95% and −47.69% and 35.60% and 53.90% and 125.51% and 74.90% and 65.49% and 32.22% and −21.64% and 13.23% | TAC Trough Concentration, Pre-ETI ([12]; individual patients 1–13, within one month before ETI start): 5.60 ng/mL and 7.30 ng/mL and 7.10 ng/mL and 6.60 ng/mL and 11.40 ng/mL and 6.90 ng/mL and 8.40 ng/mL and 7.70 ng/mL and 7.50 ng/mL and 10.40 ng/mL | TAC DN Trough Level, Post-ETI [12, 18]: 245.10 ng/mL per mg/kg/day and 19.30 ng/mL per mg/kg/day and 96.12 ng/mL per mg/kg/day and 101.40 ng/mL per mg/kg/day and 42.88 ng/mL per mg/kg/day and 62.88 ng/mL per mg/kg/day and 68.78 ng/mL per mg/kg/day and 162.86 ng/mL per mg/kg/day and 82.64 ng/mL per mg/kg/day and 451.10 ng/mL per mg/kg/day and 193.04 ng/mL per mg/kg/day and 54.29 ng/mL per mg/kg/day and 454.83 ng/mL per mg/kg/day | TAC DN Trough Level, Pre-ETI [12, 18]: 151.20 ng/mL per mg/kg/day and 45.68 ng/mL per mg/kg/day and 73.41 ng/mL per mg/kg/day and 108.97 ng/mL per mg/kg/day and 81.98 ng/mL per mg/kg/day and 46.37 ng/mL per mg/kg/day and 44.69 ng/mL per mg/kg/day and 72.22 ng/mL per mg/kg/day and 47.25 ng/mL per mg/kg/day and 272.58 ng/mL per mg/kg/day and 146.00 ng/mL per mg/kg/day and 69.29 ng/mL per mg/kg/day and 401.70 ng/mL per mg/kg/day | increase in tacrolimus DN trough levels ([12]; patients on a full dose of ETI): 32% | increase in tacrolimus DN trough levels ([12]; subgroup of 4 patients on CYP3A4 modulators and reduced ETI dose): 22% | ka (absorption rate constant) ([13]; first-order absorption model): 3.68 h⁻¹ | kin ([13]; minimal PBPK model): 0.68 h⁻¹ | kout ([13]; minimal PBPK model): 0.10 h⁻¹ | Lag time [13]: 0.43 h | Vsac (single adjusted compartment volume) [13]: 10.8 L/kg | fa (fraction available from dosage form) [13]: 1.0

CC(C)(CO)c1cc2cc(NC(=O)C3(c4ccc5c(c4)OC(F)(F)O5)CC3)c(F)cc2n1C[C@@H](O)CO [tezacaftor]
effect on the activity of CYP3A (CYP3A [1]): no significant effect
